{"source": "patent US5254577A", "about": "“Aminomethyloxooxazolidinyl arylbenzene derivatives useful as antibacterial agents” (The Du Pont Merck Pharmaceutical Company, priority 1992, dated 1993)"}
{"tested_on": "Escherichia coli", "assay": "In vitro broth microdilution, 24-hour minimal inhibitory concentration (MIC)", "format": "cell-based", "details": "Mueller-Hinton broth, read-out: Minimum Inhibitory Concentration", "source_text": "(§1) A standard microdilution method (National Committee for Clinical Standards. Tentative standard M7-T. Standard methods for dilution antimicrobial susceptibility tests for bacteria that grow aerobically. National Committee for Clinical Laboratory Standards, Villanova, Pa. 1982) with Mueller-Hinton broth is used to determine the 24-hour minimal inhibitory concentrations (MIC's) for test strains of Staphylococcus aureus and Escherichia coli.", "units": {"MIC": "µg/mL"}}
{"smiles": "CC(=O)NC[C@H]1CN(c2ccc(-c3cc(O)ccc3O)cc2)C(=O)O1", "note": "[Example 113, (l)-N-[3-(4-(2',5'-Dihydroxyphenyl)phenyl)-2-oxooxazolidin-5-ylmethyl]acetamide]", "MIC": "> 128"}
{"smiles": "CCc1ccc(-c2ccc(N3C[C@H](CNC(C)=O)OC3=O)cc2)cc1", "note": "[Example 114, (l)-N-[3-(4-(4'-Ethylphenyl)phenyl)-2-oxooxazolidin-5-ylmethyl]acetamide]", "MIC": "> 128"}
{"smiles": "CC(=O)NCC1CN(c2ccc(-c3ccc([N+](C)(C)[O-])cc3)cc2)C(=O)O1", "note": "(stereo not drawn) [Example 116]", "MIC": "> 128"}
{"smiles": "CC(=O)NC[C@H]1CN(c2ccc(-c3cccc([N+](=O)[O-])c3)cc2)C(=O)O1", "note": "[Example 119]", "MIC": "> 128"}
{"smiles": "CC(=O)NC[C@H]1CN(c2ccc(-c3ccno3)cc2)C(=O)O1", "note": "[Example 130, (l)-N-[3-[4-(5-Isoxazolyl)phenyl]-2-oxooxazolidin-5-ylmethyl]acetamide]", "MIC": "> 128"}
{"smiles": "CC(=O)NC[C@H]1CN(c2ccc(-c3csc(C)n3)cc2)C(=O)O1", "note": "[Example 132]", "MIC": "> 128"}
{"smiles": "CC(=O)NC[C@H]1CN(c2ccc(-c3csc(N)n3)cc2)C(=O)O1", "note": "[Example 134]", "MIC": "> 128"}
{"smiles": "CC(=O)NC[C@H]1CN(c2ccc(-c3ccnc(N)n3)cc2)C(=O)O1", "note": "[Example 135]", "MIC": "> 128"}
{"smiles": "CC(=O)NC[C@H]1CN(c2ccc(-c3cnco3)cc2)C(=O)O1", "note": "[Example 136]", "MIC": "> 128"}
{"tested_on": "Staphylococcus aureus", "assay": "In vitro broth microdilution, 24-hour minimal inhibitory concentration (MIC)", "format": "cell-based", "details": "Mueller-Hinton broth, read-out: Minimum Inhibitory Concentration", "source_text": "as §1", "units": {"MIC": "µg/mL"}}
{"smiles": "CC(=O)NC[C@H]1CN(c2ccc(-c3cc(O)ccc3O)cc2)C(=O)O1", "note": "[Example 113, (l)-N-[3-(4-(2',5'-Dihydroxyphenyl)phenyl)-2-oxooxazolidin-5-ylmethyl]acetamide]", "MIC": 16}
{"smiles": "CCc1ccc(-c2ccc(N3C[C@H](CNC(C)=O)OC3=O)cc2)cc1", "note": "[Example 114, (l)-N-[3-(4-(4'-Ethylphenyl)phenyl)-2-oxooxazolidin-5-ylmethyl]acetamide]", "MIC": 0.5}
{"smiles": "CC(=O)NCC1CN(c2ccc(-c3ccc([N+](C)(C)[O-])cc3)cc2)C(=O)O1", "note": "(stereo not drawn) [Example 116]", "MIC": 16}
{"smiles": "CC(=O)NC[C@H]1CN(c2ccc(-c3cccc([N+](=O)[O-])c3)cc2)C(=O)O1", "note": "[Example 119]", "MIC": "< 0.13"}
{"smiles": "CC(=O)NC[C@H]1CN(c2ccc(-c3ccno3)cc2)C(=O)O1", "note": "[Example 130, (l)-N-[3-[4-(5-Isoxazolyl)phenyl]-2-oxooxazolidin-5-ylmethyl]acetamide]", "MIC": 1}
{"smiles": "CC(=O)NC[C@H]1CN(c2ccc(-c3csc(C)n3)cc2)C(=O)O1", "note": "[Example 132]", "MIC": 4}
{"smiles": "CC(=O)NC[C@H]1CN(c2ccc(-c3csc(N)n3)cc2)C(=O)O1", "note": "[Example 134]", "MIC": 8}
{"smiles": "CC(=O)NC[C@H]1CN(c2ccc(-c3ccnc(N)n3)cc2)C(=O)O1", "note": "[Example 135]", "MIC": 4}
{"smiles": "CC(=O)NC[C@H]1CN(c2ccc(-c3cnco3)cc2)C(=O)O1", "note": "[Example 136]", "MIC": 1}
{"tested_on": "Staphylococcus aureus", "assay": "In vivo activity against Staphylococcus aureus in an acute lethal mouse model", "details": "Staphylococcus aureus, 168 h; Oral Administration; mice infected intraperitoneally, dosed 1 h and 4 h post-infection; survivors on seventh day; read-out: ED50", "description": "(§2) The in vivo potency of these compounds is exemplified by the data summarized in Table X. Determinations of in vivo efficacy are performed by inoculating mice intraperitoneally with cultures of the infecting organism diluted to produce 100% mortality in control animals within twenty-four hours. The culture of S. aureus used to infect the animals was diluted to the required bacterial density using 5% aqueous hog gastric mucin. The compounds are dissolved or suspended in 0.25% aqueous Methocel® (Methocel®: Hydroxypropyl Methylcullulose, E15 Premium, Dow Chemical Company) for oral administration or sterile distilled water containing 5% dimethylsulfoxide (Fisher Scientific Company, Fairlawn, N.J.) for subcutaneous administration. The mice are dosed at one hour and at four hours post-infection. Mortality is recorded daily until test determination seven days post infection. The number of survivors in each treatment group on the seventh day after infection is used in the calculation of the ED50, the dose of compound that protects 50% of the mice (Litchfield,J. T. and Wildoxon. A simulated method for evaluating dose-effect experiments. J. Pharmacol Exp. Ther., 98:99-113, 1949).", "units": {"ED50": "mg/kg"}}
{"smiles": "CC(=O)NC[C@H]1CN(c2ccc(-c3cc(O)ccc3O)cc2)C(=O)O1", "note": "[Example 113, (l)-N-[3-(4-(2',5'-Dihydroxyphenyl)phenyl)-2-oxooxazolidin-5-ylmethyl]acetamide]", "ED50": "> 90"}
{"smiles": "CCc1ccc(-c2ccc(N3C[C@H](CNC(C)=O)OC3=O)cc2)cc1", "note": "[Example 114, (l)-N-[3-(4-(4'-Ethylphenyl)phenyl)-2-oxooxazolidin-5-ylmethyl]acetamide]", "ED50": 8.1}
{"smiles": "CC(=O)NC[C@H]1CN(c2ccc(-c3cccc([N+](=O)[O-])c3)cc2)C(=O)O1", "note": "[Example 119]", "ED50": 6.2}
{"smiles": "CC(=O)NC[C@H]1CN(c2ccc(-c3ccno3)cc2)C(=O)O1", "note": "[Example 130, (l)-N-[3-[4-(5-Isoxazolyl)phenyl]-2-oxooxazolidin-5-ylmethyl]acetamide]", "ED50": 6}
{"smiles": "CC(=O)NC[C@H]1CN(c2ccc(-c3csc(N)n3)cc2)C(=O)O1", "note": "[Example 134]", "ED50": 56.5}
{"smiles": "CC(=O)NC[C@H]1CN(c2ccc(-c3ccnc(N)n3)cc2)C(=O)O1", "note": "[Example 135]", "ED50": 68}
{"smiles": "CC(=O)NC[C@H]1CN(c2ccc(-c3cnco3)cc2)C(=O)O1", "note": "[Example 136]", "ED50": 14.8}
{"tested_on": "Staphylococcus aureus", "assay": "In vivo activity against Staphylococcus aureus in an acute lethal mouse model", "details": "Staphylococcus aureus, sc, 168 h; Subcutaneous Administration; mice infected intraperitoneally, dosed 1 h and 4 h post-infection; survivors on seventh day; read-out: ED50", "description": "as §2", "units": {"ED50": "mg/kg"}}
{"smiles": "CC(=O)NC[C@H]1CN(c2ccc(-c3cc(O)ccc3O)cc2)C(=O)O1", "note": "[Example 113, (l)-N-[3-(4-(2',5'-Dihydroxyphenyl)phenyl)-2-oxooxazolidin-5-ylmethyl]acetamide]", "ED50": 68.3}
{"smiles": "CCc1ccc(-c2ccc(N3C[C@H](CNC(C)=O)OC3=O)cc2)cc1", "note": "[Example 114, (l)-N-[3-(4-(4'-Ethylphenyl)phenyl)-2-oxooxazolidin-5-ylmethyl]acetamide]", "ED50": "> 100"}
{"smiles": "CC(=O)NCC1CN(c2ccc(-c3ccc([N+](C)(C)[O-])cc3)cc2)C(=O)O1", "note": "(stereo not drawn) [Example 116]", "ED50": 6.4}
{"smiles": "CC(=O)NC[C@H]1CN(c2ccc(-c3cccc([N+](=O)[O-])c3)cc2)C(=O)O1", "note": "[Example 119]", "ED50": 5}
{"smiles": "CC(=O)NC[C@H]1CN(c2ccc(-c3ccno3)cc2)C(=O)O1", "note": "[Example 130, (l)-N-[3-[4-(5-Isoxazolyl)phenyl]-2-oxooxazolidin-5-ylmethyl]acetamide]", "ED50": 6}
{"smiles": "CC(=O)NC[C@H]1CN(c2ccc(-c3csc(C)n3)cc2)C(=O)O1", "note": "[Example 132]", "ED50": 17}
{"smiles": "CC(=O)NC[C@H]1CN(c2ccc(-c3csc(N)n3)cc2)C(=O)O1", "note": "[Example 134]", "ED50": 47}
{"smiles": "CC(=O)NC[C@H]1CN(c2ccc(-c3cnco3)cc2)C(=O)O1", "note": "[Example 136]", "ED50": 51.9}
